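Briefly, cells in 96-well plates were exposed to five compound concentrations for 48 h, and endpoints were estimated by linear interpolation. TGI: concentration producing complete growth inhibition.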 Bounds are passed on as bounds.

Among the test systems are OVCAR-4 ovarian; MDA-N; HOP-92 NSCLC; HCT-116 colon; K-562 leukemia; HOP-62 NSCLC; NCI-H522 lung; SF-539 CNS; EKVX NSCLC; CAKI-1 renal.
Holding throughout (experiment): DTP human tumour cell line panel, 48 h

Turning to `COC(Cc1ccccc1)NC(C)=O` (stereo unspecified), the TGI with OVCAR-4 ovarian, in the assay with MDA-N, with HOP-92 NSCLC, in the assay on HCT-116 colon, with K-562 leukemia and in the assay with HOP-62 NSCLC was over 100 µM throughout. Moreover, the TGI in the assay with NCI-H522 lung, with SF-539 CNS, with EKVX NSCLC and with CAKI-1 renal was over 100 µM throughout.
In the case of `Cc1cc(-c2nc3cc(F)c(F)cc3s2)ccc1N`, the TGI (as a rule, the concentration giving total growth inhibition) is over 100 µM in the assay on OVCAR-4 ovarian; over 100 µM in the assay on MDA-N; over 100 µM in the assay on HOP-92 NSCLC; over 100 µM in the assay on HCT-116 colon; over 100 µM in the assay with K-562 leukemia; over 71.3 µM in the assay on HOP-62 NSCLC. The TGI in the assay on NCI-H522 lung, in the assay on EKVX NSCLC and in the assay on CAKI-1 renal was over 100 µM each time.
With `N/N=C(\C(=O)Nc1ccc([N+](=O)[O-])cc1)C(C1=Nc2cc([N+](=O)[O-])ccc2NC1)[N+](=O)[O-]` (stereo unspecified), the TGI with OVCAR-4 ovarian, in the assay with MDA-N, in the assay on HOP-92 NSCLC, with HCT-116 colon, with K-562 leukemia and in the assay on HOP-62 NSCLC was over 100 µM in each case. In addition, the concentration for total growth inhibition (TGI) in the assay on NCI-H522 lung, in the assay with SF-539 CNS, in the assay with EKVX NSCLC and in the assay with CAKI-1 renal was over 100 µM each time.
Take `COc1c(O)cc(C(=O)O[C@@H]2Cc3c(O)cc(O)cc3O[C@@H]2c2cc(O)c(O)c(O)c2)cc1O`: the total growth inhibition concentration (TGI) in the assay with OVCAR-4 ovarian is 46.4 µM; in the assay with MDA-N, 58.4 µM; with HOP-92 NSCLC, over 100 µM; in the assay with HCT-116 colon, 35.4 µM; with K-562 leukemia, 46.8 µM; with HOP-62 NSCLC, 92.3 µM. The TGI with NCI-H522 lung was 54.6 µM; with EKVX NSCLC, 61.6 µM; in the assay with CAKI-1 renal, over 100 µM.
Consider `CC1(C)O[C@@H]2[C@@H]3OC(=O)C[C@@H]3[C@@H](COCc3ccccc3)[C@@H]2O1`, for which the TGI in the assay with OVCAR-4 ovarian, in the assay on MDA-N, in the assay with HOP-92 NSCLC, with HCT-116 colon, in the assay on K-562 leukemia and in the assay on HOP-62 NSCLC was over 100 µM throughout. The TGI in the assay with NCI-H522 lung, in the assay on SF-539 CNS, with EKVX NSCLC and in the assay on CAKI-1 renal was over 100 µM throughout.
For the compound `CCCCCC(/C=N/N)C(O)(C(F)(F)F)C(F)(F)F` (stereo unspecified), the TGI is over 10 µM in the assay with OVCAR-4 ovarian; over 10 µM in the assay with MDA-N; 6.36 µM with HOP-92 NSCLC; 9.02 µM in the assay with HCT-116 colon; over 10 µM in the assay with HOP-62 NSCLC; over 10 µM in the assay with NCI-H522 lung. In addition, the TGI in the assay on SF-539 CNS is over 10 µM; in the assay on EKVX NSCLC, 7.3 µM; in the assay with CAKI-1 renal it was 6.02 µM.
Consider `CN(C)/C=N/S(=O)(=O)c1nn2c(C=O)c(-c3ccc(-c4ccc([N+](=O)[O-])cc4)o3)nc2s1`, for which the total growth inhibition concentration (TGI) in the assay on OVCAR-4 ovarian was over 39.3 µM; in the assay on MDA-N it was 2.7 µM; with HOP-92 NSCLC, 8.12 µM; in the assay with HCT-116 colon, 3.68 µM; in the assay with HOP-62 NSCLC, 27.7 µM; in the assay with SF-539 CNS, 11.8 µM. Further, the TGI in the assay on EKVX NSCLC was found to be 21.1 µM; with CAKI-1 renal it was 4.06 µM.
Take `CCCCCCCC/C=C/CCCCCCCC1CC(O)C(=O)O1` (stereo unspecified): the concentration for total growth inhibition (TGI) is over 100 µM with OVCAR-4 ovarian; over 100 µM with MDA-N; 90.9 µM in the assay with HOP-92 NSCLC; over 100 µM in the assay on HCT-116 colon; over 100 µM in the assay on K-562 leukemia; over 100 µM in the assay with HOP-62 NSCLC. In the assay with EKVX NSCLC, this compound showed a TGI of over 100 µM.
As to `C=C(C(=O)O)[C@@H]1C[C@@H]2O[C@H]1CC(C)=CCC/C(C)=C/CC[C@@]2(C)O`, the TGI in the assay on OVCAR-4 ovarian, in the assay on MDA-N, in the assay with HOP-92 NSCLC, in the assay on HCT-116 colon, in the assay with K-562 leukemia and in the assay on NCI-H522 lung was over 100 µM throughout. In addition, the TGI with SF-539 CNS, in the assay with EKVX NSCLC and in the assay with CAKI-1 renal was over 100 µM in each case.
With `Cc1n[nH]c(=O)n1N1C(=O)c2ccccc2C1=O`, the TGI in the assay on OVCAR-4 ovarian, with MDA-N, in the assay on HOP-92 NSCLC, in the assay with HCT-116 colon, with K-562 leukemia and with HOP-62 NSCLC was over 100 µM each time. The TGI in the assay with SF-539 CNS, in the assay on EKVX NSCLC and with CAKI-1 renal was over 100 µM in each case.
As for `CCc1n[nH]c(=O)n1NC(=O)/C=C\C(=O)O`, the TGI in the assay on OVCAR-4 ovarian, in the assay with MDA-N, in the assay with HCT-116 colon, in the assay on K-562 leukemia, with HOP-62 NSCLC and in the assay on NCI-H522 lung was over 100 µM in each case. The concentration for total growth inhibition (TGI) in the assay with SF-539 CNS, in the assay with EKVX NSCLC and with CAKI-1 renal was over 100 µM in each case.
For the compound `O=C1O[C@H]2[C@@H]3OC(=O)c4cc(O)c(O)c(O)c4-c4c(cc(O)c(O)c4O)C(=O)OC[C@H]2O[C@@H](OC(=O)c2cc(O)c(O)c(O)c2)[C@@H]3OC(=O)c2cc(O)c(O)c3c2[C@@H]2C1=CC(=O)C(O)(O)C2(O)O3` (stereo partly specified), the TGI is 39.4 µM in the assay on OVCAR-4 ovarian; 34.6 µM with MDA-N; over 100 µM with HOP-92 NSCLC; 32 µM with HCT-116 colon; 94.5 µM in the assay on K-562 leukemia; over 100 µM in the assay with HOP-62 NSCLC. Moreover, the TGI in the assay with NCI-H522 lung is 82.9 µM; with EKVX NSCLC it was over 100 µM; with CAKI-1 renal, 27.5 µM.
With `CC[C@@]1(O)C(=O)OCc2c1cc1n(c2=O)Cc2c-1nc1ccccc1c2/C=N\NC(=O)C(C)N` (stereo partly specified), the total growth inhibition concentration (TGI) with OVCAR-4 ovarian was over 100 µM; in the assay on MDA-N, over 100 µM; in the assay on HOP-92 NSCLC, 7.7 µM; with HCT-116 colon it was 23.6 µM; in the assay on HOP-62 NSCLC, 16 µM; in the assay on NCI-H522 lung, 25.8 µM. The results for the TGI in the assay on SF-539 CNS, in the assay with EKVX NSCLC and with CAKI-1 renal were under 0.0282 µM, over 100 µM and 2.57 µM, respectively.
Turning to `c1ccc2c(c1)C(=Nc1ccc(N=C3c4ccccc4-c4ccccc43)cc1)c1ccccc1-2`, the TGI with OVCAR-4 ovarian, with MDA-N, in the assay on HOP-92 NSCLC, in the assay on HCT-116 colon, with K-562 leukemia and with HOP-62 NSCLC was over 100 µM each time. Also, the TGI in the assay on NCI-H522 lung, in the assay on EKVX NSCLC and in the assay with CAKI-1 renal was over 100 µM each time.

Source of the values: PubChem BioAssay (NCI).
